Results taken from patent publication US20060089400A1, “Novel spiro ketone and carboxylic acid derivatives as specific inhibitors for (po3h2) ser/(po3h2)thr-pro-specific peptidyl-prolylcis/trans-isomerases” (The Vernalis Group of Companies, priority 2002, published 2006).
pKi: −log10 of the molar value.

Target: T1, human Pin1 (recombinant from E. coli) (Homo sapiens, UniProt Q13526)
T1 construct: made in house; host or cells: E. coli
Assay: protease-coupled PPIase assay, inhibition of hPin1
Assay type: biochemical
Conditions: protease-coupled PPlase assay; substrate Ac-Ala-Ala-(PO3H2)Ser-Pro-Arg-(4-)nitroanilide; trypsin; 2 nM enzyme; 35 mM HEPES pH 7.8; 10° C.; 5 min preincubation; read-out: hPin1-inhibition K1
From the text: As described in example 1, the peptidyl-prolyl-cis/trans-isomerase activity can be determined in the so-called protease coupled PPlase assay with the help of isomer-specific proteolysis and the suitable oligopeptide substrates and isomer-specific proteases. Other processes for the detection of PPlase activity are e.g. observing isomer-specific differences with respect to spectroscopic properties, their mobilities or the foldback catalysis of other proteins as well as isomer-specific chemical compounds when recording core resonance spectra.
If adding active components to one of the test systems listed above leads to a measurable decrease in the reaction speed catalysed by the respective PPlase, these active components are classed PPlase inhibitors, as is exemplarily shown in example 1. Assessment of the PPlase specificity of the inhibitor is carried out by testing different PPlases in the assay. By varying the concentration of the inhibitor and assessing the results measured with conventional processes, the corresponding inhibition constant (KI-value) can be determined. The concentration of the inhibitor which inhibits the PPlase-induced catalysis by 50% is called IC50-value.
Determining the inhibition constants of the selected compound according to the invention 1′,2′,3′H-spiro[indene-3′,3-(3H-5-methoxy-benzofurane-2-one)] vis-à-vis the PPlase hPinl by protease-coupled PPlase assay: • Buffer: 35 mM HEPES (pH 7.8), 1,200 μl • Substrate: Ac-Ala-Ala-(PO3H2)Ser-Pro-Arg-(4-)nitroanilide stock solution 10 mg/ml in 35 mM Hepes (pH 7.8), • Auxiliary protease: trypsin (Roth), stock solution 10 mg/ml in 35 mM Hepes (ph 7.8), concentration in the solution for measuring 0.34 mg/ml • Enzyme: human Pin1 (recombinant from E. coli), stock solution 0.55 μM, concentration in the solution for measuring: 2 nM • Effectors: effector stock solution 10 mM in DMSO, concentration in the solution for measuring between 1,000 and 0.01 μM • Temperature: 10° C.
In the incubation solution, the effectors were preincubated with the enzyme for 5 min, then 3.5 μl of the auxiliary protease trypsin were added and the reaction was started immediately afterwards by adding 3.5 μl substrate. The reaction was monitored at a wave length of 390 nm with the measuring instrument Hewlett Packard UVNIS spectrophotometer HP 8452A. The kinetic analysis of the data was carried out by “SigmaPlot” (Scientific Graphing System Vers. 2.0, Jandel Corp.).

T1 sequence (Q13526 whole entry): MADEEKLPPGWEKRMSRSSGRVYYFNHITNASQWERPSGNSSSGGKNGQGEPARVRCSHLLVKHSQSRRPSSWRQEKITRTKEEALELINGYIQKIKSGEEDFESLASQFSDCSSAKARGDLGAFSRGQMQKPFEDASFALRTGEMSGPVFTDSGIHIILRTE

Work on `COC(=O)C1(c2ccccc2O)CCc2ccccc21` (stereo not drawn) yielded a pKi of 4.57.
Work on `COc1ccc(OC)c(C(=O)C2CCc3ccccc32)c1` (stereo not drawn) [1-(2,5-dimethoxyphenyl)-1′-indane-1′-1-methanone] yielded a pKi of 4.30.
Work on `O=C1Oc2ccccc2C12CC=CC2` [1′,2′,3′H-spiro[cyclopentene-3′,3-(3H-benzofurane-2-one)]] yielded a pKi of 3.82.
In the case of `COc1ccc2c(c1)C1(CCc3ccccc31)C(=O)O2` (stereo not drawn) [1′,2′,3′H-spiro[indene-3′,3-(3H-5-methoxy-benzofurane-2-one)]], the pKi was 5.22.
For `COc1ccc2c(c1)C1(CC(C)c3ccccc31)C(=O)O2` (stereo not drawn) [1′,2′,3′H-sprio[1′-methyl-indene-3′,3-(3H-5-methoxy-benzofurane-2-one)]], the pKi was 4.70.
Compound `O=C1Oc2ccccc2C12Cc1ccccc1C2` [1′,2′,3′H-sprio[indene-2′,3-(3H-benzofurane-2-one)]] has a pKi of 5.15.
